# Values of other authors, collected in patent US20090145189A1, “Composition and a manufacturing method thereof” (priority 2007, published 2009).
# Tests used:
# [1] = concentrations above 40 wt %, such as 50 wt %
SMILES,Water solubility,Viscosity [1]
"O=C(O)CN(CCN(CC(=O)O)CC(=O)O)CCN(CC(=O)O)CC(=O)O [DTPA, diethylenetriamine-N,N,N-penta-acetic acid]",low water solubility,
"O=C([O-])CN(CCN(CC(=O)[O-])CC(=O)[O-])CCN(CC(=O)[O-])CC(=O)[O-].[Na+].[Na+].[Na+].[Na+].[Na+] [DTPANa5, penta sodium salt of diethylenetriamine-N,N,N-penta-acetic acid]",,too viscous to allow convenient handling
